Reference: US20130303509A1, “NAMPT INHIBITORS” (AbbVie Inc., priority 2012, published 2013)

system: PC3 cells; assay: NAMPT Cell Proliferation Assay; type: cell-based; details: Homo sapiens, PC-3, 120 h, 5 days incubation, cell viability by Cell Titer Glo
In short: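 Seeded at 500 cells/well in RPMI with 10% heat-inactivated FBS and left to attach overnight at 37° C, 5% CO2. Compounds were added as 10-fold dilutions […] for 5 days, then viability was read by CellTiter-Glo. IC50s came from sigmoidal fits of percent inhibition.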

Question: `O=C(Nc1ccc(OC2CCN(C(=O)c3cccs3)CC2)cc1)C1CN(c2ccnnc2)C1` [Example 303, 1-(pyridazin-4-yl)-N-(4-{[1-(thiophen-2-ylcarbonyl)piperidin-4-yl]oxy}phenyl)azetidine-3-carboxamide] was tested. Which IC50 did it give?
Answer: Its IC50 is 58.6 nM.

Question: `Cc1ccc(C(=O)N2CCC(Oc3ccc(NC(=O)C4CN(c5ccnnc5)C4)cc3)CC2)s1` [Example 304, N-[4-({1-[(5-methylthiophen-2-yl)carbonyl]piperidin-4-yl}oxy)phenyl]-1-(pyridazin-4-yl)azetidine-3-carboxamide] was tested. Which IC50 did it give?
Answer: Its IC50 is 33.2 nM.

Question: With `O=C(Nc1ccc(OC2CCN(C(=O)Cc3cccc(C(F)(F)F)c3)CC2)cc1)C1CN(c2ccnnc2)C1` [Example 305, 1-(pyridazin-4-yl)-N-{4-[(1-{[3-(trifluoromethyl)phenyl]acetyl}piperidin-4-yl)oxy]phenyl}azetidine-3-carboxamide] as the compound, how does the IC50 read?
Answer: Its IC50 is 102 nM.

Question: With `O=C(Nc1ccc(OC2CCN(C(=O)C3CCOCC3)CC2)cc1)C1CN(c2ccnnc2)C1` [Example 306, 1-(pyridazin-4-yl)-N-(4-{[1-(tetrahydro-2H-pyran-4-ylcarbonyl)piperidin-4-yl]oxy}phenyl)azetidine-3-carboxamide] as the compound, how does the IC50 read?
Answer: The IC50 was 34.7 nM.

Question: With `CC[C@H](C)C(=O)N1CCC(Oc2ccc(NC(=O)C3CN(c4ccnnc4)C3)cc2)CC1` [Example 307, N-[4-({1-[(2S)-2-methylbutanoyl]piperidin-4-yl}oxy)phenyl]-1-(pyridazin-4-yl)azetidine-3-carboxamide] as the compound, how does the IC50 read?
Answer: Its IC50 is 20.8 nM.

Question: `O=C(Nc1ccc(OC2CCN(C(=O)Cc3ccccc3F)CC2)cc1)C1CN(c2ccnnc2)C1` [Example 308, N-[4-({1-[(2-fluorophenyl)acetyl]piperidin-4-yl}oxy)phenyl]-1-(pyridazin-4-yl)azetidine-3-carboxamide] was tested. Which IC50 did it give?
Answer: Its IC50 is 61.4 nM.

Question: How did the IC50 turn out when `CC(C)Cn1cc(-c2ccc(C(=O)NC3CN(c4cccnn4)C3)o2)cn1` [Example 309, 5-[1-(2-methylpropyl)-1H-pyrazol-4-yl]-N-[1-(pyridazin-3-yl)azetidin-3-yl]furan-2-carboxamide] was run?
Answer: The IC50 was 8200 nM.

Question: `CC(C)C(=O)N1CCC(c2ccc(NC(=O)[C@H]3CCN(c4cccnn4)C3)cc2)CC1` [Example 310, (3S)—N-{4-[1-(2-methylpropanoyl)piperidin-4-yl]phenyl}-1-(pyridazin-3-yl)pyrrolidine-3-carboxamide] was tested. Which IC50 did it give?
Answer: The IC50 was 16.1 nM.

Question: For `O=C(Nc1ccc(C2CCN(C(=O)c3ccccc3)CC2)cc1)[C@H]1CCN(c2cccnn2)C1` [Example 311, (3S)—N-[4-(1-benzoylpiperidin-4-yl)phenyl]-1-(pyridazin-3-yl)pyrrolidine-3-carboxamide], which IC50 is on record?
Answer: Its IC50 is 2.9 nM.

Question: `O=C(Nc1ccc(C2CCN(C(=O)CC3CCOCC3)CC2)cc1)[C@H]1CCN(c2cccnn2)C1` [Example 312, (3S)-1-(pyridazin-3-yl)-N-{4-[1-(tetrahydro-2H-pyran-4-ylacetyl)piperidin-4-yl]phenyl}pyrrolidine-3-carboxamide] was tested. Which IC50 did it give?
Answer: Its IC50 is 21.7 nM.

Question: Which IC50 does the source give for `CC(C)(C)C(=O)N1CCC(c2ccc(NC(=O)[C@H]3CCN(c4cccnn4)C3)cc2)CC1` [Example 313, (3S)—N-{4-[1-(2,2-dimethylpropanoyl)piperidin-4-yl]phenyl}-1-(pyridazin-3-yl)pyrrolidine-3-carboxamide] here?
Answer: Its IC50 is 6.03 nM.

Question: Which IC50 does the source give for `CC(C)(C)OC(=O)N1CCC(c2ccc(C(=O)NC3CN(c4cccnn4)C3)cc2)CC1` [Example 314, tert-butyl 4-(4-{[1-(pyridazin-3-yl)azetidin-3-yl]carbamoyl}phenyl)piperidine-1-carboxylate] here?
Answer: Its IC50 is 621 nM.

Question: With `CC(C)Cn1cc(-c2ccc(C(=O)NC3CN(c4cccnn4)C3)s2)cn1` [Example 315, 5-[1-(2-methylpropyl)-1H-pyrazol-4-yl]-N-[1-(pyridazin-3-yl)azetidin-3-yl]thiophene-2-carboxamide] as the compound, how does the IC50 read?
Answer: Its IC50 is 86.8 nM.

Question: Which IC50 does the source give for `CC(=O)N1CCC(c2ccc(NC(=O)C3CN(c4cccnn4)C3)cc2)CC1` [Example 316, N-[4-(1-acetylpiperidin-4-yl)phenyl]-1-(pyridazin-3-yl)azetidine-3-carboxamide] here?
Answer: Its IC50 is 3.12 nM.

Question: With `CCCC(=O)N1CCC(c2ccc(NC(=O)C3CN(c4cccnn4)C3)cc2)CC1` [Example 317, N-[4-(1-butanoylpiperidin-4-yl)phenyl]-1-(pyridazin-3-yl)azetidine-3-carboxamide] as the compound, how does the IC50 read?
Answer: The IC50 was 1.83 nM.

Question: With `CCCCC(=O)N1CCC(c2ccc(NC(=O)C3CN(c4cccnn4)C3)cc2)CC1` [Example 318, N-[4-(1-pentanoylpiperidin-4-yl)phenyl]-1-(pyridazin-3-yl)azetidine-3-carboxamide] as the compound, how does the IC50 read?
Answer: Its IC50 is 2.72 nM.

Question: `CCC(C)C(=O)N1CCC(c2ccc(NC(=O)C3CN(c4cccnn4)C3)cc2)CC1` (stereo not shown) [Example 319, N-{4-[1-(2-methylbutanoyl)piperidin-4-yl]phenyl}-1-(pyridazin-3-yl)azetidine-3-carboxamide] was tested. Which IC50 did it give?
Answer: The IC50 was 1.24 nM.

Question: For `CC(C)CC(=O)N1CCC(c2ccc(NC(=O)C3CN(c4cccnn4)C3)cc2)CC1` [Example 320, N-{4-[1-(3-methylbutanoyl)piperidin-4-yl]phenyl}-1-(pyridazin-3-yl)azetidine-3-carboxamide], which IC50 is on record?
Answer: The IC50 was 2.37 nM.

Question: With `CCCCCC(=O)N1CCC(c2ccc(NC(=O)C3CN(c4cccnn4)C3)cc2)CC1` [Example 321, N-[4-(1-hexanoylpiperidin-4-yl)phenyl]-1-(pyridazin-3-yl)azetidine-3-carboxamide] as the compound, how does the IC50 read?
Answer: Its IC50 is 3.21 nM.

Question: `CCCC(C)C(=O)N1CCC(c2ccc(NC(=O)C3CN(c4cccnn4)C3)cc2)CC1` (stereo not shown) [Example 322, N-{4-[1-(2-methylpentanoyl)piperidin-4-yl]phenyl}-1-(pyridazin-3-yl)azetidine-3-carboxamide] was tested. Which IC50 did it give?
Answer: The IC50 was 2.14 nM.

Question: For `CCC(C)CC(=O)N1CCC(c2ccc(NC(=O)C3CN(c4cccnn4)C3)cc2)CC1` (stereo not shown) [Example 323, N-{4-[1-(3-methylpentanoyl)piperidin-4-yl]phenyl}-1-(pyridazin-3-yl)azetidine-3-carboxamide], which IC50 is on record?
Answer: The IC50 was 2.81 nM.

Question: How did the IC50 turn out when `CC(C)CCC(=O)N1CCC(c2ccc(NC(=O)C3CN(c4cccnn4)C3)cc2)CC1` [Example 324, N-{4-[1-(4-methylpentanoyl)piperidin-4-yl]phenyl}-1-(pyridazin-3-yl)azetidine-3-carboxamide] was run?
Answer: Its IC50 is 7.08 nM.

Question: For `CCC(C)(C)C(=O)N1CCC(c2ccc(NC(=O)C3CN(c4cccnn4)C3)cc2)CC1` [Example 325, N-{4-[1-(2,2-dimethylbutanoyl)piperidin-4-yl]phenyl}-1-(pyridazin-3-yl)azetidine-3-carboxamide], which IC50 is on record?
Answer: The IC50 was 1.28 nM.

Question: With `CC(C)C(C)C(=O)N1CCC(c2ccc(NC(=O)C3CN(c4cccnn4)C3)cc2)CC1` (stereo not shown) [Example 326, N-{4-[1-(2,3-dimethylbutanoyl)piperidin-4-yl]phenyl}-1-(pyridazin-3-yl)azetidine-3-carboxamide] as the compound, how does the IC50 read?
Answer: Its IC50 is 5.77 nM.

Question: Which IC50 does the source give for `CC(C)(C)CC(=O)N1CCC(c2ccc(NC(=O)C3CN(c4cccnn4)C3)cc2)CC1` [Example 327, N-{4-[1-(3,3-dimethylbutanoyl)piperidin-4-yl]phenyl}-1-(pyridazin-3-yl)azetidine-3-carboxamide] here?
Answer: Its IC50 is 1.23 nM.

Question: With `CCC(CC)C(=O)N1CCC(c2ccc(NC(=O)C3CN(c4cccnn4)C3)cc2)CC1` [Example 328, N-{4-[1-(2-ethylbutanoyl)piperidin-4-yl]phenyl}-1-(pyridazin-3-yl)azetidine-3-carboxamide] as the compound, how does the IC50 read?
Answer: Its IC50 is 1.59 nM.

Question: How did the IC50 turn out when `CCCCCCC(=O)N1CCC(c2ccc(NC(=O)C3CN(c4cccnn4)C3)cc2)CC1` [Example 329, N-[4-(1-heptanoylpiperidin-4-yl)phenyl]-1-(pyridazin-3-yl)azetidine-3-carboxamide] was run?
Answer: Its IC50 is 2.83 nM.

Question: With `C=CCC(=O)N1CCC(c2ccc(NC(=O)C3CN(c4cccnn4)C3)cc2)CC1` [Example 330, N-{4-[1-(but-3-enoyl)piperidin-4-yl]phenyl}-1-(pyridazin-3-yl)azetidine-3-carboxamide] as the compound, how does the IC50 read?
Answer: The IC50 was 1.38 nM.

Question: How did the IC50 turn out when `C=CCCC(=O)N1CCC(c2ccc(NC(=O)C3CN(c4cccnn4)C3)cc2)CC1` [Example 331, N-{4-[1-(pent-4-enoyl)piperidin-4-yl]phenyl}-1-(pyridazin-3-yl)azetidine-3-carboxamide] was run?
Answer: The IC50 was 2.09 nM.

Question: `O=C(Nc1ccc(C2CCN(C(=O)CC(F)(F)F)CC2)cc1)C1CN(c2cccnn2)C1` [Example 332, 1-(pyridazin-3-yl)-N-{4-[1-(3,3,3-trifluoropropanoyl)piperidin-4-yl]phenyl}azetidine-3-carboxamide] was tested. Which IC50 did it give?
Answer: Its IC50 is 0.99 nM.

Question: How did the IC50 turn out when `COCC(=O)N1CCC(c2ccc(NC(=O)C3CN(c4cccnn4)C3)cc2)CC1` [Example 333, N-{4-[1-(methoxyacetyl)piperidin-4-yl]phenyl}-1-(pyridazin-3-yl)azetidine-3-carboxamide] was run?
Answer: Its IC50 is 5.68 nM.

Question: `CSCC(=O)N1CCC(c2ccc(NC(=O)C3CN(c4cccnn4)C3)cc2)CC1` [Example 334, N-(4-{1-[(methylsulfanyl)acetyl]piperidin-4-yl}phenyl)-1-(pyridazin-3-yl)azetidine-3-carboxamide] was tested. Which IC50 did it give?
Answer: Its IC50 is 0.97 nM.

Question: `COCCOCC(=O)N1CCC(c2ccc(NC(=O)C3CN(c4cccnn4)C3)cc2)CC1` [Example 335, N-(4-{1-[(2-methoxyethoxy)acetyl]piperidin-4-yl}phenyl)-1-(pyridazin-3-yl)azetidine-3-carboxamide] was tested. Which IC50 did it give?
Answer: The IC50 was 6.07 nM.

Question: Which IC50 does the source give for `O=C(Nc1ccc(C2CCN(C(=O)CC[N+](=O)[O-])CC2)cc1)C1CN(c2cccnn2)C1` [Example 336, N-{4-[1-(3-nitropropanoyl)piperidin-4-yl]phenyl}-1-(pyridazin-3-yl)azetidine-3-carboxamide] here?
Answer: The IC50 was 8.26 nM.

Question: Which IC50 does the source give for `CSCCC(=O)N1CCC(c2ccc(NC(=O)C3CN(c4cccnn4)C3)cc2)CC1` [Example 337, N-(4-{1-[3-(methylsulfanyl)propanoyl]piperidin-4-yl}phenyl)-1-(pyridazin-3-yl)azetidine-3-carboxamide] here?
Answer: The IC50 was 6.94 nM.

Question: `C#CCCC(=O)N1CCC(c2ccc(NC(=O)C3CN(c4cccnn4)C3)cc2)CC1` [Example 338, N-{4-[1-(pent-4-ynoyl)piperidin-4-yl]phenyl}-1-(pyridazin-3-yl)azetidine-3-carboxamide] was tested. Which IC50 did it give?
Answer: Its IC50 is 1.11 nM.

Question: How did the IC50 turn out when `O=C(Nc1ccc(C2CCN(C(=O)C3CCCCC3)CC2)cc1)C1CN(c2cccnn2)C1` [Example 339, N-{4-[1-(cyclohexylcarbonyl)piperidin-4-yl]phenyl}-1-(pyridazin-3-yl)azetidine-3-carboxamide] was run?
Answer: Its IC50 is 1.83 nM.
